Literature values in patent US20260116929A1, “ANTI-GRAM-NEGATIVE BACTERIAL COMPOUND” (Murata Manufacturing Co., Ltd., priority 2018, published 2026).

Assays:
Conditions in all cases: background statement
[1] = test system: gram-positive bacteria
[2] = test system: Vibrio parahaemolyticus
[3] = test system: gram-negative bacteria

Row | Compound | antimicrobial activity against gram-positive bacteria [1] | antimicrobial activity against Vibrio parahaemolyticus [2] | antimicrobial activity against gram-negative bacteria [3]
1 | Nisin | has an antimicrobial activity | no antimicrobial activity | not
2 | entianin | have antimicrobial activities | – | not
3 | C=C1NC(=O)CC[C@@H](C(=O)O)NC(=O)[C@H](NC(=O)[C@H](CCCCN)NC(=O)[C@@H](N)Cc2c[nH]c3ccccc23)CSC[C@@H](C(=O)N[C@@H]2C(=O)N3CCC[C@H]3C(=O)NCC(=O)N[C@H](C(=O)N[C@H](C(=O)N[C@@H]3C(=O)NCC(=O)N[C@@H](C)C(=O)N[C@@H](CC(C)C)C(=O)N[C@@H](CCC(N)=O)C(=O)N/C(=C/C)C(=O)N[C@H](C(=O)N[C@@H](Cc4ccccc4)C(=O)N[C@@H](CC(C)C)C(=O)N[C@@H](CCC(N)=O)C(=O)N[C@@H]4C(=O)N[C@@H](CC(C)C)C(=O)N[C@H]5C(=O)N[C@@H](CSC4C)C(=O)NC(=O)[C@H](CC(N)=O)N[C@H](C(=O)N[C@@H](CCCCN)C(=O)N[C@H](C(=O)NC(=C)C(=O)N[C@@H](CCCCN)C(=O)O)[C@@H](C)CC)CSC5C)CSC3C)C(C)C)CSC2C)N[C@@H](CC(C)C)C(=O)NC1=O (stereo partly shown) [subtilin] | have antimicrobial activities | – | not
